# Data: ChEMBL document CHEMBL1132001, “Generation of an Ugi library of phosphate mimic-containing compounds and identification of novel dual specific phosphatase inhibitors” (Bioorg Med Chem Lett, 1999)
# Key:
# Homo sapiens = species on record: Homo sapiens; assay: Inhibition of dual specificity Cell division cycle 25
# [1] = Compound was evaluated for its activity against PTP1B (a tyrosine phosphatase)
# [2] = target: Dual specificity protein phosphatase 3 (Homo sapiens) (UniProt P51452); assay: Compound was evaluated for its activity against VHR
# Sequence of Dual specificity protein phosphatase 3 (Homo sapiens) (P51452 whole entry, looked up): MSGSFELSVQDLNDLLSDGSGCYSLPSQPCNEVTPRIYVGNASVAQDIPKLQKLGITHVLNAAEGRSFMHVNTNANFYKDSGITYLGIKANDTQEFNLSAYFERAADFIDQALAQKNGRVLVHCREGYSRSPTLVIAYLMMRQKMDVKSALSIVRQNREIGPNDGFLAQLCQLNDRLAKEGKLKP
SMILES,Activity (Homo sapiens) [µM],Activity [1] [µM],Activity [2] [µM]
O=C(O)CNC(=O)C(c1nccs1)N(Cc1ccc2c(c1)OCO2)C(=O)c1ccc(CP(=O)(O)O)cc1 (centres undefined),35,> 96,> 9
O=C(O)C(Oc1ccc(C(C(=O)NC2CCCCC2)N(Cc2ccc3c(c2)OCO3)C(=O)c2ccc(CP(=O)(O)O)cc2)cc1)C(=O)O (centres undefined),3,107,11
CC(C)=CCCC(C)C(C(=O)NC1CCCCC1)N(CCc1c[nH]c2ccccc12)C(=O)c1ccc(C(F)(F)P(=O)(O)O)cc1 (centres undefined),27,,
Cc1ccc(S(=O)(=O)CNC(=O)C(c2ccc(OCP(=O)(O)O)cc2)N(CCc2c[nH]c3ccccc23)C(=O)c2cc(Br)cc(Br)c2O)cc1 (centres undefined),10,95,> 120
O=C(O)C(Oc1ccc(C(=O)N(Cc2ccc3c(c2)OCO3)C(C(=O)NC2CCCCC2)c2ccc(OCP(=O)(O)O)cc2)cc1)C(=O)O (centres undefined),0.7,82,5
CC(C)=CCCC(C)C(C(=O)NC1CCCCC1)N(Cc1ccc2c(c1)OCO2)C(=O)c1ccc(CP(=O)(O)O)cc1 (centres undefined),23,73,19
CC(C)/C=C\CC(C)C(C(=O)NCC(=O)O)N(CCc1c[nH]c2ccccc12)C(=O)c1cc(Br)cc(Br)c1O (centres undefined),15,,
O=C(NC(Cc1ccc(O)cc1)C(=O)N(CCc1c[nH]c2ccccc12)C(C(=O)NCCN1CCOCC1)c1ccc(OCP(=O)(O)O)cc1)OCC1c2ccccc2-c2ccccc21 (centres undefined),8,16,6.1
O=C(NC1CCCCC1)C(c1ccnc2ccccc12)N(CCc1c[nH]c2ccccc12)C(=O)c1ccc(CP(=O)(O)O)cc1 (centres undefined),16,> 160,87
O=C(O)C(Oc1ccc(C(=O)N(Cc2ccc3c(c2)OCO3)C(C(=O)NC2CCCCC2)c2ccc(OC(C(=O)O)C(=O)O)cc2)cc1)C(=O)O (centres undefined),3,89,9
CC(C)=CCCC(C)C(C(=O)NC1CCCCC1)N(CCc1c[nH]c2ccccc12)C(=O)c1ccc(CP(=O)(O)O)cc1 (centres undefined),23,61,17
